From the CheMixHub drug solubility set

Assay: xn = mol fraction of the nth substance listed, in the solute-free solvent

O=c1ccc2ccccc2o1 + CC(C)=O + O
solubility (g/100 g solution)
Settings	x2 = 0.1	x2 = 0.2	x2 = 0.3	x2 = 0.4	x2 = 0.5	x2 = 0.6	x2 = 0.7	x2 = 0.8	x2 = 0.9
268.15 K	0.474	2.21	4.51	9.81	13.8	17.1	19.9	21.9	23.1
273.15 K	0.611	2.81	6.5	11.9	16.8	20.6	23.7	25.8	26.9
278.15 K	0.798	3.96	8.98	15.3	20.9	25	27.8	30.6	31.5
283.15 K	1.05	5.18	12.2	19.5	25.5	30.2	33.1	35.3	36.2
288.15 K	1.38	6.75	16.8	24.6	31.4	36	39.3	41.2	41.8
293.15 K	1.8	9.24	22.3	31.3	38.5	42.9	46.2	47.7	48
298.15 K	2.27	12.3	29.6	38.4	45.7	49.6	52.6	53.6	53.9
303.15 K	2.96	16.8	37.4	47	53.9	57.2	59.4	59.8	59.8

Clc1ncnc2[nH]ccc12 + C1CCOC1 + CC(C)O
solubility (g/100 g solution)
Settings	278.15 K	283.15 K	288.15 K	293.15 K	298.15 K	303.15 K	308.15 K	313.15 K	318.15 K	323.15 K
x2 = 0.1584	3.68	4.2	4.8	5.46	6.15	6.89	7.74	8.58	9.6	10.6
x2 = 0.32	5.12	5.79	6.49	7.25	8.17	9.04	9.96	10.9	12	13.2
x2 = 0.4848	6.63	7.38	8.22	9.03	9.99	10.9	12	13.1	14.2	15.3
x2 = 0.5685	7.34	8.12	8.96	9.81	10.8	11.9	12.8	14	15.1	16.3
x2 = 0.6531	7.99	8.83	9.69	10.6	11.6	12.6	13.7	14.7	15.8	17
x2 = 0.8247	8.95	9.82	10.7	11.6	12.6	13.5	14.6	15.7	16.7	17.9

CC(=O)Nc1ccc(OC(=O)c2ccccc2OC(C)=O)cc1 + CC(C)O + O
solubility (g/100 g solution)
Settings	278.15 K	283.15 K	288.15 K	293.15 K	298.15 K	303.15 K	308.15 K	313.15 K	318.15 K
x2 = 0.03225	0.00278	0.00407	0.0057	0.00819	0.0115	0.0161	0.0217	0.0296	0.0399
x2 = 0.06974	0.0072	0.0102	0.0142	0.0195	0.0268	0.0367	0.0481	0.0636	0.0846
x2 = 0.1139	0.015	0.0212	0.0289	0.0402	0.0537	0.0718	0.0958	0.126	0.162
x2 = 0.1666	0.0246	0.0342	0.0466	0.0633	0.0855	0.114	0.148	0.195	0.252
x2 = 0.2307	0.0358	0.0489	0.0678	0.0921	0.124	0.165	0.217	0.285	0.371
x2 = 0.3103	0.0475	0.0662	0.0897	0.123	0.163	0.215	0.29	0.374	0.488
x2 = 0.4117	0.0571	0.0787	0.109	0.148	0.197	0.26	0.341	0.445	0.574
x2 = 0.5454	0.0663	0.0911	0.125	0.167	0.221	0.295	0.381	0.494	0.642
x2 = 0.7297	0.0717	0.097	0.131	0.177	0.239	0.315	0.412	0.525	0.68

Cc1ccc(Nc2nccc(N(C)c3ccc4c(C)n(C)nc4c3)n2)cc1S(N)(=O)=O + CC#N + CC(C)O
solubility (g/100 g solution)
Settings	288.15 K	293.15 K	298.15 K	303.15 K	308.15 K	313.15 K	318.15 K	323.15 K	328.15 K
x2 = 0.2679	0.00834	0.0123	0.0162	0.0208	0.0257	0.0311	0.0374	0.0456	0.0557
x2 = 0.4939	0.0116	0.0198	0.0273	0.0362	0.0457	0.0552	0.0651	0.0758	0.0876
x2 = 0.6871	0.0161	0.0249	0.0344	0.0445	0.0553	0.0662	0.079	0.0943	0.113
x2 = 0.8541	0.0119	0.0172	0.0243	0.0311	0.0393	0.0478	0.0563	0.0666	0.0803
